From PubChem BioAssay AID2060358 (Molecular Pharmacology Branch, DTP, NCI, 2025)

Tested on: 254851-301-R-J1-PDC spheroids, viability % test/control
Experiment: Anticancer human tumor 254851-301-R-J1-PDC patient-derived colon carcinoma cell line growth inhibition [TAK]
Settings: spheroids with HUVEC and MSC; for IC50: curve of first compound; for viability, T/C: stronger effect = lower value
Text: Combinatorial screen of targeted agents with TAK-243 and ipatasertib in multi-cell type tumor spheroids
A high-throughput screen of multi-cell type tumor spheroids was designed to identify active combinations of targeted small molecules and TAK-243 or ipatasertib. Complex spheroids include a stromal component modeled by human endothelial cells (HUVEC) and fibroblasts modeled by human mesenchymal stem cells (MSCs). The concentration ranges selected for each drug and investigational agent were based upon clinically achievable concentrations if the clinical Cmax of the agent was known.
Compounds. The drugs and investigational agents: TAK-243 (785004), ipatasertib (767898), everolimus (733504), selumetinib (741078), bortezomib (756655), trametinib (758246), ixazomib (758254), vemurafenib (761431), dabrafenib (764134), sapanisertib (764658), alpelisib (765974), and copanlisib (816437), were obtained from the National Cancer Institute (NCI) Developmental Therapeutics Program Chemical Repository. The FDA-approved anticancer drug set is available from the NCI Developmental Therapeutics Program. […] The stock solutions were prepared in dimethyl sulfoxide (DMSO, Sigma-Aldrich, St. Louis, MO, cat. D2650) at 800-fold the tested concentration and stored at -70 degrees C prior to their use. All drugs and investigational agents were tested over a range starting from a high concentration at or near the clinical Cmax and decreasing in half-log increments. If the clinical Cmax for an agent had not been determined, the highest concentration tested was 10 microM.
NCI60 Cell Culture. NCI60 cell lines were obtained from the NCI Developmental Therapeutics Program Tumor Repository. For each lot of cells, the Repository performed Applied Biosystems AmpFLSTR Identifiler testing with PCR amplification to confirm consistency with the published Identifier STR profile for each cell line. Cells were kept in continuous culture for no more than 20 passages. The optimal seeding densities for each of the cell lines at each time point assessed were determined prior to performing the concentration response studies. Briefly, the NCI60 human tumor lines were grown as monolayers in RPMI 1640 medium supplemented with 10% FBS and 2 mmol/L L-glutamine.
An additional 2 lines were from the NCI60 cell line panel including melanomas, MALME-3M and SK-MEL-2. Pooled donor human umbilical vein endothelial cells (HUVEC, Lonza, cat. CC-2519) and human mesenchymal stem cells (hMSC, Lonza, cat. PT-2501) were purchased from Lonza (Walkersville, MD).
PDMR cell lines were grown in complete medium (DC medium): Dulbecco's modified Eagle's medium (DMEM)/F12 supplemented with 5% fetal bovine serum (FBS), 2 mM L-glutamine, 100 U/mL penicillin and 100 µg/ml streptomycin, 0.4 µg/ml hydrocortisone, 10 ng/ml epidermal growth factor (EGF) recombinant human protein, 24 µg/mL adenine, and 0.1 mg/mL primocin. During culture from frozen stock vials, PDMR cells were cultured in the same medium containing 10 µM Y-27632 (see Table 3). The PDCs were cultured in complete DMEM/F12 media without 10 microM Y-27632 dihydrochloride for at least two passages prior to the screen. The pooled donor HUVEC and hMSC were cultured in endothelial cell growth medium 2 (PromoCell, Heidelberg, Germany, cat. C-22011) and mesenchymal stem cell growth medium 2 (PromoCell, cat. C-28009), respectively. For all experiments, HUVEC and hMSC were used at passages </=5.
For the pre-screen, cell seeding densities were determined from a titration spanning the range from 5,000 to 313 cells per well. The mct-spheroids including 60% malignant cells, 25% HUVEC and 15% MSC dispensed as a mixture into U-bottom Ultra-Low Attachment 384-well plates (Corning, NY)
High-throughput Drug Combination Screening.
Prior to their inoculation into 384-well plates, malignant cells, HUVEC, and hMSC were removed from T flasks using TrypLE express (Thermo Fisher Scientific, cat. 12605036) and harvested by centrifugation for 5 min at 233 x g. […]
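Further: spheroids exposed to drugs for seven days before viability readout.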

CC(C)CC(NC(=O)C(Cc1ccccc1)NC(=O)c1cnccn1)B(O)O (stereo not given) + CC(C)NCC(C(=O)N1CCN(c2ncnc3c2C(C)CC3O)CC1)c1ccc(Cl)cc1
IC50 (second compound 0.3 µM): > 0.01 µM
IC50 (second compound 0.949 µM): > 0.01 µM
IC50 (second compound 3 µM): > 0.01 µM
IC50 (second compound 9.49 µM): > 0.01 µM
IC50 (second compound 30 µM): > 0.01 µM
viability, T/C (second compound 0.3 µM, first compound 31.6 pM): 118%
viability, T/C (second compound 0.3 µM, first compound 0.0001 µM): 124%
viability, T/C (second compound 0.3 µM, first compound 0.000316 µM): 109%
viability, T/C (second compound 0.3 µM, first compound 0.001 µM): 112%
viability, T/C (second compound 0.3 µM, first compound 0.00316 µM): 103%
viability, T/C (second compound 0.3 µM, first compound 0.01 µM): 79.9%
viability, T/C (second compound 0.949 µM, first compound 31.6 pM): 112%
viability, T/C (second compound 0.949 µM, first compound 0.0001 µM): 114%
viability, T/C (second compound 0.949 µM, first compound 0.000316 µM): 101%
viability, T/C (second compound 0.949 µM, first compound 0.001 µM): 107%
viability, T/C (second compound 0.949 µM, first compound 0.00316 µM): 103%
viability, T/C (second compound 0.949 µM, first compound 0.01 µM): 87.9%
viability, T/C (second compound 3 µM, first compound 31.6 pM): 108%
viability, T/C (second compound 3 µM, first compound 0.0001 µM): 114%
viability, T/C (second compound 3 µM, first compound 0.000316 µM): 110%
viability, T/C (second compound 3 µM, first compound 0.001 µM): 109%
viability, T/C (second compound 3 µM, first compound 0.00316 µM): 111%
viability, T/C (second compound 3 µM, first compound 0.01 µM): 86.6%
viability, T/C (second compound 9.49 µM, first compound 31.6 pM): 106%
viability, T/C (second compound 9.49 µM, first compound 0.0001 µM): 110%
viability, T/C (second compound 9.49 µM, first compound 0.000316 µM): 112%
viability, T/C (second compound 9.49 µM, first compound 0.001 µM): 104%
viability, T/C (second compound 9.49 µM, first compound 0.00316 µM): 99%
viability, T/C (second compound 9.49 µM, first compound 0.01 µM): 81.4%
viability, T/C (second compound 30 µM, first compound 31.6 pM): 90.3%
viability, T/C (second compound 30 µM, first compound 0.0001 µM): 98.9%
viability, T/C (second compound 30 µM, first compound 0.000316 µM): 94.4%
viability, T/C (second compound 30 µM, first compound 0.001 µM): 89%
viability, T/C (second compound 30 µM, first compound 0.00316 µM): 85.7%
viability, T/C (second compound 30 µM, first compound 0.01 µM): 71%

Cn1cnc2c(F)c(Nc3ccc(Br)cc3Cl)c(C(=O)NOCCO)cc21 + CC(C)NCC(C(=O)N1CCN(c2ncnc3c2C(C)CC3O)CC1)c1ccc(Cl)cc1
IC50 (second compound 0.3 µM): 1.6 µM
IC50 (second compound 0.949 µM): 1.61 µM
IC50 (second compound 3 µM): 1.63 µM
IC50 (second compound 9.49 µM): 1.54 µM
IC50 (second compound 30 µM): 1.41 µM
viability, T/C (second compound 0.3 µM, first compound 0.00949 µM): 110%
viability, T/C (second compound 0.3 µM, first compound 0.03 µM): 120%
viability, T/C (second compound 0.3 µM, first compound 0.0949 µM): 110%
viability, T/C (second compound 0.3 µM, first compound 0.3 µM): 108%
viability, T/C (second compound 0.3 µM, first compound 0.949 µM): 77.5%
viability, T/C (second compound 0.3 µM, first compound 3 µM): 16.6%
viability, T/C (second compound 0.949 µM, first compound 0.00949 µM): 111%
viability, T/C (second compound 0.949 µM, first compound 0.03 µM): 108%
viability, T/C (second compound 0.949 µM, first compound 0.0949 µM): 118%
viability, T/C (second compound 0.949 µM, first compound 0.3 µM): 88.7%
viability, T/C (second compound 0.949 µM, first compound 0.949 µM): 78.9%
viability, T/C (second compound 0.949 µM, first compound 3 µM): 19.6%
viability, T/C (second compound 3 µM, first compound 0.00949 µM): 101%
viability, T/C (second compound 3 µM, first compound 0.03 µM): 118%
viability, T/C (second compound 3 µM, first compound 0.0949 µM): 115%
viability, T/C (second compound 3 µM, first compound 0.3 µM): 105%
viability, T/C (second compound 3 µM, first compound 0.949 µM): 79.1%
viability, T/C (second compound 3 µM, first compound 3 µM): 17.6%
viability, T/C (second compound 9.49 µM, first compound 0.00949 µM): 103%
viability, T/C (second compound 9.49 µM, first compound 0.03 µM): 114%
viability, T/C (second compound 9.49 µM, first compound 0.0949 µM): 112%
viability, T/C (second compound 9.49 µM, first compound 0.3 µM): 102%
viability, T/C (second compound 9.49 µM, first compound 0.949 µM): 75.2%
viability, T/C (second compound 9.49 µM, first compound 3 µM): 15.3%
viability, T/C (second compound 30 µM, first compound 0.00949 µM): 84.6%
viability, T/C (second compound 30 µM, first compound 0.03 µM): 92.4%
viability, T/C (second compound 30 µM, first compound 0.0949 µM): 105%
viability, T/C (second compound 30 µM, first compound 0.3 µM): 83.9%
viability, T/C (second compound 30 µM, first compound 0.949 µM): 72.4%
viability, T/C (second compound 30 µM, first compound 3 µM): 8.88%
